Like-named read-outs stand apart in the source and are kept apart here.
What was measured:
Format in all cases: cell-based, Echinococcus multilocularis
[1] = tested on: E. multilocularis metacestode vesicles; test: Metacestode vesicle viability assay (ATP, CellTiter-Glo); details: for viability at 10 µM: Echinococcus multilocularis, 288 h; for effect on metacestode vesicle viability (in words): twelve days, cut-off viability ≤30 %
Description: Viability was assessed after 12 days using the same metacestode vesicles as for the PGI release assay. Triton X-100 was added to each well to a final concentration of 0.1 %. Subsequently the metacestode vesicles were broken mechanically and 50 μL of the supernatant was mixed with 50 μL of CellTiter-Glo® buffer (Promega, Dübendorf, Switzerland). Measurements were performed on a HIDEX Sense microplate reader.

[2] = tested on: E. multilocularis metacestode vesicles; test: Phosphoglucose isomerase (PGI) release assay (damage-marker release) on metacestode vesicles; details: 10 μM; for PGI d5 (relative PGI release): 5 days; for PGI d12 (relative PGI release): 12 days; for activity in the PGI release assay (in words): twelve days, cut-off PGI release ≥20 %
[3] = tested on: E. multilocularis GL cells; test: Germinal layer cell viability assay (CellTiter-Glo); details: 80 to 0.31 μM, 5 days
Description: The isolation of GL cells was conducted according to ([Kaethner et al., 2023]). Briefly, conditioned DMEM (cDMEM) was prepared prior to isolation. For the preparation of cDMEM, 1 × 10^6 RH cells and 10 × 10^6 RH cells incubated in DMEM supplemented with 10 % FBS, penicillin (100 U/mL), streptomycin (100 μg/mL) and tetracycline (5 μg/mL) for six or four days, respectively, at 37 °C under a humid, 5 % CO2 atmosphere. The supernatant of each was mixed 1:1 and sterile filtrated, resulting in cDMEM. Metacestode vesicles of at least 6 months of age were washed with PBS, incubated in distilled H2O for 2.5 min and subsequently mechanically disrupted. The resulting pellet was resuspended in 7 vol of pre-warmed 0.05 % Trypsin/0.02 % EDTA and incubated at 37 °C for 30 min. GL cells were extracted from the laminated layer by vigorous shaking followed by filtration through a 30 μm mesh (Sefar AG, Heiden, Switzerland) and separated from calcareous corpuscles by short centrifugation at 50×g for 30 s at RT. The isolated cells were centrifuged for 10 min at 600×g and RT and the pellet was resuspended in cDMEM. The cell suspension was diluted 1:100 in PBS to measure the OD600. An OD600 value of 0.1 of this dilution was defined as one arbitrary unit (AU) per μL of the undiluted cell suspension corresponding to 0.97 ± 0.11 μg of total protein for the GL cells as measured via Pierce™ bicinchoninic acid (BCA) Protein Assay Kit according to the manufacturer's protocol (Fisher Scientific AG, Reinach, Switzerland). 1′000 AU per 5 mL of cDMEM were cultured at 37 °C overnight under a humid nitrogen atmosphere. The next day, 2′000 AU of GL cells were combined and further cultured for 3 h at 37 °C under a humid nitrogen atmosphere before they were used for further experiments.
To assess effects of compounds on the cell viability of isolated E. multilocularis GL cells, the protocol was applied as previously described ([Kaethner et al., 2023]). In short, 15 AU of GL cells were distributed into each well of a black 384-well plate. Compounds dissolved in DMSO (alexidine, carbendazim, ESI-09, MMV1581545 and oxfendazole) were added to final concentrations ranging from 80 to 0.31 μM (1:2 serial dilution) and the cells were cultured for 5 days at 37 °C under a humid, microaerobic atmosphere (85 % N2, 10 % CO2, 5 % O2). DMSO with the respective concentration was used as a solvent control. Viability was measured using the CellTiter-Glo® kit. Luminescence was measured using a HIDEX Sense microplate reader. Measurements were done in quadruplicates and represented as relative viability of the DMSO controls. IC50 values were calculated in R applying the five parameter logistic model for three independent experiments ([Ritler et al., 2020]).

[4] = overview screen, 10 μM, singlets, 12 days, relative to DMSO control
[5] = overview screen, singlets, relative to 0.1 % Triton X-100, DMSO subtracted
[6] = confirmation screen, triplicates, mean
[7] = overview screen, 10 μM, singlets, 12 days, relative to DMSO control, read-out: Viability d12 (relative viability)

| Compound | Viability d12 (relative viability) [1, 4] | PGI d5 (relative PGI release) [2, 5] | PGI d12 (relative PGI release) [2, 5] | also measured |
| --- | --- | --- | --- | --- |
| CC(C)CCN1C(=O)C(C2=NS(=O)(=O)c3cc(NS(C)(=O)=O)ccc3N2)=C(O)[C@@H]2[C@H]3CC[C@H](C3)[C@@H]21 [MMV1782220] | 132.239% | 0.5402% | 0.853% | – |
| C[C@H](c1cccc2ccccc12)N(C)Cc1ccccc1 [MMV1782221] | 45.2554% | 2% | -21.1471% | – |
| CN1c2ccc(Cl)cc2N(c2ccccc2)C(=O)c2cn(Cc3ccc(CN4CCOCC4)cc3)nc21 [MMV1782222] | 123.597% | -0.005582% | 0.3517% | – |
| CN(C)c1[nH]c(=O)ncc1F [MMV1782223] | 98.8605% | -2.446% | -24.7543% | – |
| N#C/C(=C1/SC[C@@H](c2ccc(Cl)cc2Cl)S1)n1ccnc1 [MMV1782224] | – | 12.0659% | -22.8965% | Viability d12 (relative viability) ([1]; 10 µM): 41.9155% |
| O=C(Nc1[nH]c(=O)ncc1F)c1ccccc1 [MMV1782225] | 224.691% | -0.8152% | -21.87% | – |
| OB1OCc2c1ccc(Cl)c2F [MMV1782226] | 39.4941% | -2.405% | -26.1495% | – |
| O=C(NNC(=S)Nc1ccc(Cl)cc1)c1ccncc1 [MMV1782227] | 12.3576% | 3.665% | 72.3585% | Viability d12 (relative viability) ([1]; confirmation screen, 10 μM, triplicates, mean, 12 days): 83.65%; PGI d5 (relative PGI release) [2, 6]: 0.0543%; PGI d12 (relative PGI release) [2, 6]: -0.30% |
| Cc1cc(CCOc2c(C)cc(-c3nnn(C)n3)cc2C)on1 [MMV1782349] | 107.625% | -0.7312% | -0.8271% | – |
| CC(C)Oc1ccc(-n2cnc3cc(/C=C\c4ccc(C(C)(C)O)cc4)ccc32)cc1 [MMV1782350] | 72.1416% | -0.1916% | 0.3132% | – |
| O=C(NC(=O)N1CCCc2ccccc21)c1cccc(Cl)c1 [MMV1782351] | 118.649% | -2.457% | -24.682% | – |
| O=C(O)COc1cccc2c1CC[C@](O)(COC(=O)N(c1ccccc1)c1ccccc1)C2 [MMV1782352] | 68.1339% | -0.08001% | -0.2818% | – |
| CC(C)(C)NC(=O)[C@@H]1CN(Cc2cnc3occc3c2)CCN1C[C@@H](O)C[C@@H](Cc1ccccc1)C(=O)N[C@H]1c2ccccc2C[C@H]1O [MMV1782353] | 92.6641% | 0.2673% | -0.3369% | – |
| Cc1cc(-c2ccccc2)c(C(=O)C(=O)Nc2ccc(N3CCN(c4ncc(F)cn4)CC3)cc2)n1C [MMV1782354] | 36.0707% | 1.821% | -11.1929% | – |
| Nc1nc2c(Cc3cccnc3)c[nH]c2c(=O)[nH]1 [MMV1782355] | 81.2481% | -0.9111% | 0.236% | – |
| CN(O)C(=O)c1cc2c(CN3CCC[C@H]3C(N)=O)cn(Cc3ccc(F)cc3)c2cn1 [MMV1782386] | 103.448% | 0.7573% | -1.18% | – |
| COC(=O)Nc1nc2c(C)cccc2[nH]1 [MMV1782387] | 91.1788% | -0.1734% | -20.8652% | – |
| CNc1nc(=O)[nH]cc1F [MMV1782388] | 224.858% | -3.006% | -25.8676% | – |
| Cc1cc(C)n(O)c(=O)c1 [MMV1782389] | 156.473% | -2.677% | -25.4049% | – |
| Cc1cc(C)n2nc(C(=O)NS(=O)(=O)c3c(C)cccc3OC(F)(F)F)nc2n1 [MMV1782402] | 179.119% | -1.59% | 1.998% | – |
| CCNC(=O)Nc1cn2c(-c3ncc(CC)cn3)cc(-c3cccnc3)cc2n1 [MMV1782403] | 142.751% | -2.559% | 16.0574% | – |
| O=S(=O)(NCB(O)O)c1ccc(-c2nnn[nH]2)cc1C(F)(F)F [MMV1782411] | 79.3081% | -0.527% | -17.35% | – |
| NC(=O)C(c1ccccc1)(c1ccccc1)[C@H]1CCCN(CCc2ccc3c(c2)CCO3)C1 [MMV1782412] | 220.792% | 1.533% | 2.087% | – |
| COC(=O)Nc1nc2ccccc2[nH]1 [carbendazim] | – | 6.336% | 74.6935% | effect on GL cell viability (in words) [3]: did not reduce GL cell viability; effect on GL cell viability (in words) ([3]; listed as Carbendazim): not able to decrease GL cell viability; viability at 10 µM ([1]; read-out: Viability d12 (relative viability), confirmation screen, 10 μM, triplicates, mean, 12 days): 36.4%; viability at 10 µM ([1]; read-out: Viability d12 (relative viability), overview screen, 10 μM, singlets, 12 days, relative to DMSO control): 4.59%; PGI d5 (relative PGI release) [2, 6]: 5.10%; PGI d12 (relative PGI release) [2, 6]: 24.66% |
| CC(=O)Oc1ccccc1C(=O)Nc1ncc([N+](=O)[O-])s1 [nitazoxanide, reference compound] | – | 37.9028% | 44.5196% | viability at 10 µM [1, 7]: 38.4%; effect on metacestode vesicle viability (in words) ([1]; overview screen, 10 μM): did not meet the threshold in the metacestode viability assay; effect on metacestode vesicle viability (in words) ([1]; overview screen, 10 μM, listed as MMV688991): did not reduce the metacestode vesicle viability; activity in the PGI release assay (in words) ([2]; overview screen): showed activity in the PGI release assay; activity in the PGI release assay (in words) ([2]; overview screen, listed as MMV688991): active in the PGI assay after twelve days |
| COC(=O)Nc1nc2ccc([S+]([O-])c3ccccc3)cc2[nH]1 (centres unmarked) [oxfendazole, reference compound] | – | -1.521% | 31.4286% | effect on GL cell viability (in words) [3]: not able to decrease GL cell viability; effect on GL cell viability (in words) ([3]; listed as Oxfendazole): did not reduce GL cell viability; viability at 10 µM ([1]; confirmation screen, 10 μM, triplicates, mean, 12 days, read-out: Viability d12 (relative viability)): 30.6%; viability at 10 µM [1, 7]: 15.1%; PGI d5 (relative PGI release) [2, 6]: 5.40%; PGI d12 (relative PGI release) [2, 6]: 29.07% |

From article PMC12410356 (International Journal for Parasitology: Drugs and Drug …, 2025)
